Literature values in the CATMoS acute toxicity set (Mansouri et al. 2021).
“And” between values parts separate entries of the source, which are not always exact repeats. Equal values may be shown once. Where a SMILES comes first, the peptide text is derived from it. Bridges are numbered along the chain shown (N, C = ends). [ ]: non-standard residue; d: D form. The star is where a group is joined. Octanoyl(6-Me) = CCC(C)CCCCC(=O)*; Dab = NCC[CH](N)C(=O)O

Test: rat acute oral toxicity
Settings: in vivo
Excerpt: […]The data set underlying the modeling effort for this project was initially compiled by NICEATM and U.S. EPA’s CCTE. Briefly, LD50 data were collected from rat acute oral systemic toxicity tests, including limit tests, ranges/confidence intervals, and discrete LD50 values. The full data set included 21,200 LD50 entries for 15,688 substances. […] Data were reviewed to ensure that LD50 values with obvious errors in the extracted data such as unit conversion errors (e.g., comma and decimal separator misplacements) were either fixed or removed. After this review, 16,209 LD50 values remained. Many of the chemicals represented had multiple LD50 entries, requiring that a single representative value per Chemical Abstracts Service Registry Number (CASRN) identifier be defined to facilitate modeling efforts. Based on ATWG feedback and to define the representative LD50 as a protective value while accounting for the distribution across multiple LD50s, the median of the lowest quartile was computed using only discrete LD50 values (omitting limit test data and range and confidence interval data). A detailed summary of the data compilation is available online on the NICEATM webpage dedicated to the collaborative modeling project (NTP 2020).
[…][…] For categorical designations, limit test and range/confidence interval LD50 data were integrated wherever possible. As such, the number of chemicals with end point values/calls varies across the modeling end points (Table 3) based on whether chemicals had representative LD50 values and/or other data. If a chemical had both, the representative value was used to determine categorical calls rather than limit test data. Some data were useable only for certain end points and categories depending on the thresholds. For example, ranges that spanned multiple hazard categories were considered only for the binary (very toxic/nontoxic) end points and omitted from rendering a determination for hazard category assignment.
[…]The final data set comprising 11,992 chemicals was split into training and evaluation sets […], respectively. This process was performed semirandomly by ordering chemicals based on the five end points (categorical and continuous LD50 values) and partitioning every fourth record into the evaluation set accordingly. This approach was taken to ensure an equivalent distribution of the LD50 values and the different hazard categories between the training and the evaluation sets without supervised sampling of the chemicals based on structures (Figure 1A). The sources of the chemical structures were also kept equivalent between the two sets, with chemical structures obtained from DSSTox, being the highest quality, representing over 75% of each set (Figure 1B).

Compound	LD50
O=C(O)c1c(O)c(O)cc2ccccc12	24500 mg/kg
N#CC(Cl)CCl (stereo not drawn)	22 mg/kg
CNCCCC12CCC(c3ccccc31)c1ccccc12	760 mg/kg
CCOC(C1=NCC(OC)CN1)c1ccccc1 (stereo not drawn)	875 mg/kg
Cc1cccc(C)n1	400 mg/kg
CCc1cc2c(s1)-n1c(C)nnc1CN=C2c1ccccc1Cl	3510 mg/kg
Nc1ncnc2[nH]cnc12	227 mg/kg
CCc1ccc2c(c1)C(=O)c1ccccc1C2=O	2800 mg/kg
NC1=NCC(c2ccccc2)O1 (stereo not drawn)	25 mg/kg
CN=c1oc2ccccc2n1C	1000 mg/kg
COc1ccc(Nc2ccc(OC)cc2)cc1	2470 mg/kg
CCCCCCCC/C=C\CCCCCCCC(=O)N(C)CCS(=O)(=O)O	1700 mg/kg
Oc1ccc2ccccc2c1	1960 mg/kg and 2120 mg/kg
CCS(=O)CC(C)SP(=O)(OC)OC (stereo not drawn)	89 mg/kg
COc1cccc(C2(O)CCCCC2CN(C)C)c1 (stereo not drawn)	228 mg/kg
O=C1C(O)=C(CC=C(Cl)Cl)C(=O)c2ccccc21	281 mg/kg
CCOC(=O)C(C(C)=O)C(=O)Cc1c(C)n(C(=O)c2ccc(Cl)cc2)c2ccc(OC)cc12 (stereo not drawn)	175 mg/kg
CC(C)(Oc1ccc(CCNC(=O)c2ccc(Cl)cc2)cc1)C(=O)O	1080 mg/kg
CCCN(CCC)C(=O)C(CCC(=O)OCCCOC(=O)Cc1c(C)n(C(=O)c2ccc(Cl)cc2)c2ccc(OC)cc12)NC(=O)c1ccccc1 (stereo not drawn)	605 mg/kg
O=CN(c1ncnc2c1ncn2CC1CC1)C1CC1	500 mg/kg
O=C(O)Cc1ccc2c(c1)C(=O)c1ccccc1CO2	143 mg/kg
O=C1C(Cl)C2(Cl)C3C(Cl)OCC3C1(Cl)C2(Cl)Cl (stereo not drawn)	100 mg/kg
Cn1cc(C(O)=Nc2cccc3c2C2CCC3C2=C(Cl)Cl)c(C(F)F)n1 (stereo not drawn)	55 mg/kg
c1ccc2c(c1)OCCOCCOc1ccccc1OCCOCCO2	2600 mg/kg

Compound	LD50
Cc1c(Cl)ccc(C(C)c2ccccc2)c1C (stereo not drawn)	2130 mg/kg
O=[N+]([O-])OC1COC2C(O)COC12 (stereo not drawn)	2300 mg/kg
CCOP(=S)(OCC)SCS(=O)(=O)CC	1.2 mg/kg
Cc1ccc2c(c1)c1c3n2CCNC3CCC1 (stereo not drawn)	2060 mg/kg
CCCCC(CC)COP(=O)(OCC(CC)CCCC)OCC(CC)CCCC (stereo not drawn)	37000 mg/kg
CC(C)OC(=O)C=CC(=O)OC(C)C	2140 mg/kg and 3250 mg/kg
CCOCCOC(=O)C(C)Oc1ccc(Oc2ncc(C(F)(F)F)cc2Cl)cc1 (stereo not drawn)	518 mg/kg
CCS(=O)(=O)Oc1ccc2c(c1)C(C)(C)CO2	2030 mg/kg
CN1CCN(C)CC1	1120 mg/kg
CC(C=CC=C(C)C=CC(=O)C1(C)CC(O)CC1(C)C)=CC=CC=C(C)C=CC=C(C)C=CC1=C(C)CC(O)CC1(C)C (stereo not drawn)	11200 mg/kg
CS(=O)(=O)OC(CCN1CCCCC1)(c1ccccc1)c1ccccc1	1240 mg/kg
CCCCCCCCn1sccc1=O	550 mg/kg
CCCCC(CC)COC(=O)c1ccccc1C(=O)OCc1ccccc1 (stereo not drawn)	60000 mg/kg
NC1=NCC(CN2CCN(c3ccccc3)CC2)O1 (stereo not drawn)	575 mg/kg
CNC(=O)Oc1cccc2c1OC(C)(C)C2=O	295 mg/kg
C=C(C)C1CC=C(CO)CC1 (stereo not drawn)	2100 mg/kg
CCOP(=S)(OCC)Oc1cc(C)n(C)c(=O)c1	5.97 mg/kg
O=S1(=O)CC=CC1	2550 mg/kg
NCCSSCCN	896 mg/kg
CCCCCCCCCC=CC(=O)OC(=O)C=CCCCCCCCCC	3800 mg/kg
Cc1nc(C(C)C)c(=O)[nH]c1C	903 mg/kg
CCOP(=O)(OCC)SCc1ccccc1	660 mg/kg
Cc1cc(C)n(SC(Cl)(Cl)Cl)n1	570 mg/kg
Cc1ccc(C(C)OC(=O)C2(C)CCC(C(=O)O)C2(C)C)cc1 (stereo not drawn)	2810 mg/kg

Compound	LD50
O=C(Cl)C(Cl)Cl	2460 mg/kg
Nc1ncc2[nH]cnc2n1	723 mg/kg
NS(=O)(=O)C1CCCCC1	80 mg/kg
CCc1cccc(CC)c1N(CC(=O)O)C(=O)CCl	2300 mg/kg
CCOc1ccc2c(c1)C(C)=CC(C)(C)N2	3580 mg/kg
c1ccc2c(c1)Sc1ccccc1N2CC1CN2CCC1CC2 (stereo not drawn)	245 mg/kg
CC(C(=O)O)c1ccc(C(=O)c2ccccc2)s1 (stereo not drawn)	181 mg/kg
CCC(C)(O)CCc1ccccc1 (stereo not drawn)	2950 mg/kg
Cc1ccc2c(c1)CC(=O)c1cc(C(C)C(=O)O)ccc1O2 (stereo not drawn)	147 mg/kg
CN1CCCC(CC2c3ccccc3Sc3ccccc32)C1 (stereo not drawn)	1460 mg/kg
C=CC(=O)OCCCOCC	820 mg/kg
CC(CC(=O)c1ccc(-c2ccc(F)cc2F)cc1)C(=O)O (stereo not drawn)	134 mg/kg
C=CCOC(=O)c1ccc(C(=O)OCC=C)c(C(=O)OCC=C)c1	2400 mg/kg
C/C=C/C=C/C=O	300 mg/kg
O=C(O)Cn1c(=O)n(Cc2ccc(Br)cc2F)c(=O)c2ccc(Cl)cc21	4250 mg/kg
CCOC(=O)c1c(C)cc2nc(COC(=O)NC)n(-c3ccccc3Cl)c(=O)c2c1C	2500 mg/kg
Cc1ccc(CO)cc1	3900 mg/kg
CCC(C)CCCCC(=O)NC(CCN)C(=O)NC(C(=O)NC(CCN)C(=O)NC1CCNC(=O)C(C(C)O)NC(=O)C(CCN)NC(=O)C(CCN)NC(=O)C(C(C)O)NC(=O)C(CC(C)C)NC(=O)C(CCN)NC1=O)C(C)O (stereo not drawn) ({Octanoyl(6-Me)}-[Dab]T[Dab][Dab][Dab]LT[Dab][Dab]T; lactam 4-C; configuration not given here)	910 mg/kg
CCC(C(=O)OCCOCCN(CC)CC)c1ccccc1 (stereo not drawn)	4160 mg/kg
O=C(c1ccc2c(c1)C(=O)OC2=O)c1ccc2c(c1)C(=O)OC2=O	12800 mg/kg
CC(=O)Oc1c(C(C)(C)C)cc([N+](=O)[O-])c(C)c1[N+](=O)[O-]	42 mg/kg
Cn1c(=O)c2c(ncn2CC2SCCS2)n(C)c1=O	1840 mg/kg
CCOC(=O)C(C)(CC)Oc1ccc(Cc2ccc(Cl)cc2)cc1 (stereo not drawn)	9000 mg/kg
N#Cc1c(Cl)cccc1Cl	2710 mg/kg

Compound	LD50
O=C(C1CCCCC1)N1CC(=O)N2CCc3ccccc3C2C1 (stereo not drawn)	2840 mg/kg
Cc1ccccc1N(CCO)CCO	2200 mg/kg
CC(=O)c1ccc(OCC(=O)NN)cc1	1820 mg/kg
Cc1ccc(SN(C)C(=O)Oc2cccc3c2OC(C)(C)C3)cc1	25 mg/kg
CCOC(=S)C=Cc1ccc(OC)cc1	930 mg/kg
CC(C)(C)C1CCC(O)CC1 (stereo not drawn)	4200 mg/kg
SCCS	120 mg/kg
Cc1c(Cc2cc(C(C)(C)C)c(O)c(C(C)(C)C)c2)c(C)c(Cc2cc(C(C)(C)C)c(O)c(C(C)(C)C)c2)c(C)c1Cc1cc(C(C)(C)C)c(O)c(C(C)(C)C)c1	1500 mg/kg
CCN(CC)CCN1C(=O)NC(c2ccccc2)(c2ccccc2)C1=O	1300 mg/kg
CCCc1c(OCc2cccn3c(=O)c(CCC(=O)O)cnc23)ccc(C(C)=O)c1O	4000 mg/kg
CC(C)(C)c1cc(O)ccc1O	700 mg/kg
c1ccc(COCc2ccccc2)cc1	2500 mg/kg
C=C(C)c1ccc(C(C)(C)N=C=O)cc1	4400 mg/kg
CN(C)CC(=O)N/N=C/c1c(Cl)nc2sccn12	1500 mg/kg
Cc1nc(C)c(C)nc1C	1910 mg/kg
CCCCOCC	1870 mg/kg
CCCC1(CC(=O)O)OCCc2c1[nH]c1ccccc21 (stereo not drawn)	1420 mg/kg
CCCCOC(=O)/C=C/C(=O)OCCCC	8530 mg/kg
N#CCCSCCC#N	4210 mg/kg
COc1cc(C)c2[nH]c(=O)sc2c1	7580 mg/kg
CCCCCCCCCCOCCCN(C(=O)CC(C(=O)O)S(=O)(=O)O)C(CC(=O)OCC)C(=O)OCC (stereo not drawn)	16200 mg/kg
OCC(Cl)CCl (stereo not drawn)	90 mg/kg
CCN(CC)CCNc1c2ccccc2nc2cccc([N+](=O)[O-])c12	42.2 mg/kg
CC1C(C)(C)C2=C(C(=O)CCC2)C1(C)C (stereo not drawn)	2900 mg/kg

Compound	LD50
O=c1[nH]c(=O)n([C@H]2C[C@H](O)[C@@H](CO)O2)cc1F	215 mg/kg
CN(Sc1ccccc1)C(=O)Oc1cccc2c1OC(C)(C)C2	25 mg/kg
CCCCN(CCO)CCO	4250 mg/kg
Cc1ccnc(C)c1	200 mg/kg
N#Cc1ccc2c(c1)N(CCCN1CCC(O)CC1)c1ccccc1S2	395 mg/kg
O=C(OCC1(COC(=O)c2cccnc2)CCCC(COC(=O)c2cccnc2)(COC(=O)c2cccnc2)C1O)c1cccnc1	10000 mg/kg
CCOC(=O)CC	8730 mg/kg
Cc1cc(-c2ccc(/N=N/c3c(N)c(C)cc(S(=O)(=O)O)c3N)c(C)c2)ccc1/N=N/c1ccc(O)c(C(=O)O)c1	6830 mg/kg
C=CCC(CCN(CC)CC)(C(=O)OCC)c1ccccc1 (stereo not drawn)	200 mg/kg
Cc1ccc2c(c1)C(N1CCN(C)CC1)=Nc1ccccc1S2	934 mg/kg
O=C(NC(CCc1ccc2c(c1)OCO2)CCc1ccc2c(c1)OCO2)c1ccc(Cl)cc1	1800 mg/kg
CC1(C)C(C=NOCc2ccco2)C1C(=O)OC(C#N)c1cccc(Oc2ccccc2)c1 (stereo not drawn)	91 mg/kg
CN1C(C(=O)Nc2ccccn2)=C(OC(=O)C(C)(C)C)c2sc(Cl)cc2S1(=O)=O	24.6 mg/kg
OC1(c2ccccc2)c2ccccc2C2=NCCN21 (stereo not drawn)	300 mg/kg
CCOC(=O)C1=C(O)c2ccccc2S(=O)(=O)N1C	4800 mg/kg
CNC(=O)ON=C1SC(C)C(=O)NC1(C)C (stereo not drawn)	0.884 mg/kg
CN(C)CCN(C)n1cc(-c2ccccc2)c2ccccc21	1160 mg/kg
CCCCC(CC)(C(=O)OCC)C(=O)OCCN(CC)CC (stereo not drawn)	638 mg/kg
CCOP(=S)(OCC)SCC(N)=O	10 mg/kg
COc1ccc(O)cc1	1600 mg/kg
CCOC(=S)c1ccc2c(c1)OCO2	1160 mg/kg
COS(=O)(=O)OC	205 mg/kg
